From patent publication US20200222418A1, “USE OF PHENOTHIAZINE DERIVATIVE IN THE TREATMENT OF INFECTION CAUSED BY BACTERIA CARRYING TYPE IV PILI” (priority 2017, published 2020)

Tests used:
[1] = tested on: Nm2C4.3 microcolonies on HCMEC/D3 human brain endothelial cell line; assay: Dispersion of meningococcal microcolonies on human brain endothelial cells; assay type: cell-based, Neisseria meningitidis; conditions: 10-40 μM, 30 min
Protocol: A. HBMEC were infected with Nm2C4.3 for 1 h 30, treated with Trifluoperazine (10-40 μM) for 30 minutes, before fixation and immunofluorescence analysis using anti-Nm2C4.3 antibody and Alexa Fluor 633 Phalloidin. B. Quantification of the bacterial colonization was performed using Image J software.
HCMEC/D3, a well-established human brain endothelial cell line (Weksler et al, 2013) was grown in EBM-2 basal medium (Lonza, Walkersville, Md., USA) supplemented with 5% Fetal Bovine Serum “Gold”, 10 mM HEPES (PM Laboratories GmbH, Pasching, Austria), 1% Penicillin-Streptomycin, 1% chemically defined lipid concentrate (Invitrogen Ltd, Paisley, UK), 1.4 μM hydrocortisone, 5 μg·ml^−1 ascorbic acid and 1 ng·ml^−1 bFGF (Sigma-Aldrich, St. Louis, Mo.). Cells were grown on Thermanox coverslips coated with rat collagen I for 4 days at 37° C. in a humidified incubator in 5% CO2. Cells were then infected with a suspension of Nm2C4.3 (˜10^7 CFU/ml) in EBM2/FBS during 30 minutes to allow bacterial adhesion. Cells were then washed three times with medium to remove non-adherent bacteria and infection was pursued for 1 h 30: adherent bacteria grew at the endothelial cell surface and formed micro-colonies. Trifluoperazine was then added to obtain final concentrations of 10, 20, 30 and 40 μM. […] Quantification was done with ImageJ software (NIH). […]

[2] = tested on: N. meningitidis 2C4.3 aggregates; assay type: cell-based, Neisseria meningitidis; conditions: for dispersion of bacterial aggregates formed in suspension: aggregates pre-formed 2 h, 20 min, Trifluoperazine 10-40 μM, Gentamicin 150 μg/ml, Cefotaxim 20 μg/ml
Protocol: N. meningitidis 2C4.3 was grown in liquid culture at 10^7 CFU/ml for 2 h to form bacterial aggregates and were treated with increasing concentrations of Trifluoperazine (10 to 40 μM), Gentamicin (150 μg/ml) or cefotaxim (20 μg/ml) for 20 minutes and bacterial aggregates were immediately visualized using a phase-contrast microscope. […] (B) Quantification of the bacterial aggregation was performed using Image J software.
N. meningitidis 2C4.3 wild type strain and the isogenic derivative mutant PilT ([…]PiIT) were grown in liquid culture at 10^7 CFU/ml for 2 h to form bacterial aggregates and then treated with 50 μM Trifluoperazine. Time lapse phase-contrast video microscopy was performed to visualize the effect on bacterial aggregates over time. Images were taken at the indicated time points of the video.
N. meningitidis 2C4.3 was grown in liquid culture at 10^7 CFU/ml for 2 h to form bacterial aggregates and were treated with 30 μM Trifluoperazine for 30 minutes to induce bacterial dispersion or PBS as a control. The medium was replaced to remove the Trifluoperazine and the reformation of bacterial aggregates were visualized overtime using a phase-contrast microscope.
Bacteria were grown in suspension for 2 h then Phenothiazine derivatives were added at the indicated concentrations.
N. meninigitidis 2C4.3 strain was grown in suspension in wells of a 24 well plate, containing 1 ml of DMEM medium supplemented with 10% heat-inactivated fetal calf serum. After 2 h of growth, Trifluoperazine (or control vehicle) was added at various concentrations ranging from 10 to 40 μM for 20 min and the bacterial aggregates were visualized over time using a phase-contrast microscope.
N. meninigitidis 2C4.3 strain was grown in suspension in wells of a 24 well plate, containing 1 ml of DMEM medium supplemented with 10% heat-inactivated fetal calf serum. After 2 h of growth, various concentrations (0.5 to 80 μM) of phenothiazine-derivative compounds or control vehicle (PBS or DMSO) were added to the wells for 30 min and the bacterial aggregates were visualized using a phase-contrast microscope. Were tested phenothiazine-derivative compounds of: • the Piperazine group: Trifluoperazine (Sigma #T8516), Fluphenazine (Sigma #F4765), Prochlorperazine (Sigma #P9178) Perphenazine (Sigma #P6402); • the Piperidine group: Thioridazine (Sigma #T9025) and Mesoridazin (Sigma #M4068); • the Aliphatic group: Chlorpromazine (Sigma #C8138), Promazine (Sigma #P6656), Triflupromazine (Sigma #1686003) and levomepromazine (Sigma #L0500000).

[3] = tested on: Nm2C4.3 colonization of human brain vessels; design: species or system Neisseria meningitidis; conditions: 40 μM for 30 min
Protocol: A. Immunofluorescence analysis of CD31 (green), N. meningitidis colonies (red) and nucleus (blue) in the cortical region of serial brain sections from the same donor infected with Nm2C4.3 wild-type strain for 1 h, then treated with Trifluoperazine (40 μM for 30 min) or PBS alone, as a control. Scale bars, 20 μm. Images are representative of 2 different human brain sections. B. Mean±s.e.m. of the vascular colonization index. Analysis of 50 sections per brain section, n=2 sections per condition. ***P<0.001, one-way ANOVA.
In situ infection of fresh human brain sections was performed as described previously (Bernard et al, 2014). […] Adherent meningococci were detected by immunofluorescence analysis: brain sections were incubated with the following primary antibodies for 2 h in PBS/BSA 0.1%: monoclonal anti-human CD31/PECAM-1 mouse monoclonal antibody (clone HEC7, ABCAM, ab119339) and a rabbit polyclonal serum anti-Nm 2C4.3 strain (1:3000). […] Entire samples were scanned using a Lamina (Perkin Helmer) and were further analysed using confocal microscopy (spinning disk Leica, 63x). Quantification analysis of the images (n=50 per section) was performed using ImageJ software (NIH). […]

[4] = tested on: Nm2C4.3 adhesion to human dermal microvascular endothelial cells (HDMECs); assay: Adhesion of pretreated meningococci to endothelial cells; assay type: cell-based, Neisseria meningitidis; conditions: bacteria pre-treated with 30 μM for 30 minutes
Protocol: Nm2C4.3 grown in suspension were pretreated in the absence or in the presence of 30 μM Trifluoperazine for 30 minutes before adhesion to human dermal microvascular endothelial cells (HDMECs) for 30 minutes. Infection was allowed to proceed for further 30, 60 or 90 minutes before fixation and immunostaining using anti-Nm2C4.3 antibody and Alexa Fluor 633 Phalloidin. (A) Representative fluorescence microscopy showing bacterial colony (white dots) formed at the surface of the endothelial cells. (B) Quantification of the bacterial colonization was performed using Image J software.

Q: Which results are given for `CN1CCN(CCCN2c3ccccc3Sc3ccc(C(F)(F)F)cc32)CC1` [Trifluoperazine]?
A: dispersion of meningococcal microcolonies at the surface of human brain endothelial cells [1]: induced their dispersion; reversibility of the effect on aggregation upon removal of the drug ([2]; 30 μM for 30 minutes, then medium replaced): reversible; dispersion of bacterial aggregates formed in suspension [2]: induced their dispersion; time after addition within which dispersion of aggregates occurs ([2]; time lapse video microscopy, 50 μM): 10 to 15 min; dispersal of meningococcal microcolonies in infected brain sections [3]: induced the dispersal; adhesion to and colony formation at the endothelial cell surface [4]: did no longer adhere to and/or form bacterial colony

Q: `CN[C@@H]1[C@@H](O)C(O[C@@H]2[C@@H](O)[C@H](O[C@H]3O[C@H]([C@@H](C)NC)CC[C@H]3N)[C@@H](N)C[C@H]2N)OC[C@]1(C)O` (stereo partly drawn) [Gentamicin, (3R,4R,5R)-2-{[(1S,2S,3R,4S,6R)-4,6-diamino-3-{[(2R,3R,6S)-3-amino-6-[(1R)-1-(methylamino)ethyl]oxan-2-yl]oxy}-2-hydroxycyclohexyl]oxy}-5-methyl-4-(methylamino)oxane-3,5-diol] was tested. Which “dispersion of bacterial aggregates formed in suspension” value [2] did it give?
A: did not significantly induce the dispersion
